For the assay, the system named is breast cancer cell line ZR-75-1. Nature of the assay: Inhibition of proliferation of breast cancer cell line ZR-75-1 (CellTiter-Glo). Format: cell-based. The note with it: Homo sapiens, 240 h, proliferation of ZR-75-1 cells, 10 days of incubation, read-out: IC50 (KAT6A). An excerpt:
Test Example 1: Experiment for Determining Inhibitory Effects of Compounds on Proliferation of Breast Cancer Cell Line ZR-75-1
ATP is an indicator of the metabolism of living cells. The CellTiter-Glo® Luminescent Cell Viability Assay is a homogeneous assay method for determining the number of viable cells by quantifying ATP.
• 1) ZR-75-1 (Cell Bank of Chinese Academy of Sciences, TCHul26) • 2) RPMI-1640 medium (Gibco, 11875-093) • 3) Fetal Bovine Serum, New Zealand (Gibco,10091-148) • 4) Penicillin-streptomycin (10,000 U/mL) (Gibco, 15140-122) • 5) Trypsin-EDTA (0.25%), containing phenol red (Gibco, 25200-072) • 6) DPBS (Shanghai BasalMedia, B210KJ) • 7) Corning® 96-well Clear Flat Bottom Ultra-Low Attachment Microplate (Corning, Cat. No. 3474) • 8) 330 μL 96 Holes Deep Well Plate, transparents, 96 Round Holes, V-shaped Bottom, Low Retention (Stellar Scientific, DP33VR-9-NS) • 9) Corning® 96-well solid white flat-bottom polystyrene microplate (Corning, Cat. No. 3917) • 10) CellTiter-Glo® Luminescent Cell Viability Assay (Promega, G7573) • 11) Countstar® BioMed automatic cell counter • 12) Trypan blue solution, 0.4% (Gibco, Cat. No. 15250061) • 13) 37° C. constant-temperature incubator (Thermo, FORMA STERI-CYCLE i160 LK) • 14) Biosafety cabinet (Thermo, 1379)
• 1) The formula of the complete medium for ZR-75-1 was as follows: 500 mL RPMI-1640+10% FBS+1% penicillin-streptomycin. • 2) Thirty minutes before cell plating, the complete medium, serum, trypsin, and DPBS for use in ZR-75-1 cell culture were pre-warmed in a water bath at 37° C. • 3) The ZR-75-1 cells were taken out of the incubator, and the medium was removed by pipetting. The cells were rinsed once with 5 mL of DPBS, and then the DPBS was discarded. • 4) The cells in the T75 culture flask were digested with 1-3 mL of (0.25%) trypsin-EDTA. After the trypsin was added, the culture flask was incubated in an incubator at 37° C. for 2-5 min, and dispersion was confirmed by microscopic examination. Tapping or agitating the culture flask was avoided to prevent disturbing the cells, which might cause cell clumping. • 5) 9 mL of the complete medium was added to terminate the digestion, thus forming a cell suspension, which was then mixed well by pipetting. • 6) Cell suspension counting: 20 μL of the cell suspension was pipetted and diluted with 20 µL of the 0.4% trypan blue solution (Gibco, Cat. No. 15250061). The total cell count and the percentage of cell viability were determined using the Countstar® BioMed automatic cell counter. Only cells with a cell viability of no less than 95% were used for the experiment. • 7) The concentration of the cell suspension was adjusted to 2000 cells/well, and the cell suspension was added to a 96-well cell culture plate at 80 μL/well. Treatment of Cells with Compounds • 1) Twenty-four hours after cell plating, the cell plate was taken out. • 2) Each compound was prepared with a complete medium. The stock solution was a 10 mM solution in DMSO, which was first diluted with the medium to 100 μM, then diluted to 1 μM, and finally subjected to a 5-fold serial dilution across a total of 9 concentration gradients. • 3) 20 μL of the compound diluted with the medium was added to each well of the cell culture plate, which already contained 80 μL of the medium. The final concentration started at 200 nM, followed by a 5-fold serial dilution across a total of 9 concentration gradients. Two replicate wells were set for each compound, and each plate could be used to test 3 compounds, with the DMSO content controlled within 0.5%. • 4) The culture medium was replenished once every three days with a complete medium containing the same concentration of the test compound, with 20 μL/well added each time.
After 10 days of incubation with the compound, the cell culture plate was taken out, and the CellTiter-Glo® reagent was added at 50 μL/well. […]

A word on the IC50: it is the concentration needed to halve the response being measured.

Bounds are passed on as bounds.

For `COc1ccc2c(c1S(=O)(=O)Nc1noc3cc(Cn4cccn4)cc(OC)c13)OCCC2(C)O` (centres unmarked) [Compound 38, N-(6-((1H-Pyrazol-1-yl)methyl)-4-methoxybenzo[d]isoxazol-3-yl)-4-hydroxy-7-methoxy-4-methylchromane-8-sulfonamide], the IC50 is less than 0.5 nM.

As for `COc1cccc(OC)c1S(=O)(=O)Nc1nsc2cc(Cn3cccn3)ccc12` [Compound 25, N-(6-((1H-Pyrazol-1-yl)methyl)benzo[d]isothiazol-3-yl)-2,6-dimethoxybenzenesulfonamide], the IC50 is no less than 50 nM.

For `COc1cccc(OC)c1S(=O)(=O)Nc1nsc2cc(Cn3cccn3)cc(OC)c12` [Compound 24, N-(6-((1H-Pyrazol-1-yl)methyl)-4-methoxybenzo[d]isothiazol-3-yl)-2,6-dimethoxybenzenesulfonamide], the IC50 lay within 10 to 50 nM.

On to `COc1ccc2c(c1S(=O)(=O)Nc1noc3cc(Cn4cccn4)cc(Cl)c13)OCCC21SCCS1` [Compound 47, N-(6-((1H-Pyrazol-1-yl)methyl)-4-chlorobenzo[d]isoxazol-3-yl)-7-methoxyspiro[chromane-4,2′-[1,3]dithiolane]-8-sulfonamide], for which the IC50 was 0.5 to 2 nM.

`COc1cc(Cn2cccn2)cc2onc(NS(=O)(=O)c3ccccc3OC3CC(F)(F)C3)c12` [Compound 2, N-(6-((1H-Pyrazol-1-yl)methyl)-4-methoxybenzo[d]isoxazol-3-yl)-2-(3,3-difluorocyclobutoxy)benzenesulfonamide]: the IC50 is 2 to 10 nM.

Regarding `COc1ccc2c(c1S(=O)(=O)Nc1noc3cc(Cn4cccn4)c(F)c(Cl)c13)OCCC2(C)C` [Compound 31, N-(6-((1H-Pyrazol-1-yl)methyl)-4-chloro-5-fluorobenzo[d]isoxazol-3-yl)-7-methoxy-4,4-dimethylchromane-8-sulfonamide], the IC50 is 0.5 to 2 nM.

Consider `COc1c(F)c(Cn2cccn2)cc2onc(NS(=O)(=O)c3ccccc3OC3CCC3)c12` [Compound 108, N-(6-((1H-Pyrazol-1-yl)methyl)-5-fluoro-4-methoxybenzo[d]isoxazol-3-yl)-2-cyclobutoxybenzenesulfonamide], for which the IC50 lay in the range of 0.5 to 2 nM.

On to `COc1cc(Cn2cccn2)cc2onc(NS(=O)(=O)c3cccc4c3OCO4)c12` [Compound 4, N-(6-((1H-Pyrazol-1-yl)methyl)-4-methoxybenzo[d]isoxazol-3-yl)benzo[d][1,3]dioxole-4-sulfonamide], for which the IC50 was in the range of 10 to 50 nM.

On to `COc1c(F)c(Cn2cccn2)cc2onc(NS(=O)(=O)c3cc(C(C)(C)C)ccc3OC3CCC3)c12` [Compound 7, N-(6-((1H-Pyrazol-1-yl)methyl)-5-fluoro-4-methoxybenzo[d]isoxazol-3-yl)-5-(tert-butyl)-2-cyclobutoxybenzenesulfonamide], for which the IC50 is 0.5 to 2 nM.

Turning to `COc1cc(Cn2cccn2)cc2onc(NS(=O)(=O)c3ccccc3OC3CCC3)c12` [Compound 1, N-(6-((1H-Pyrazol-1-yl)methyl)-4-methoxybenzo[d]isoxazol-3-yl)-2-cyclobutoxybenzenesulfonamide], the IC50 was 0.5 to 2 nM.

For the molecule `COc1ccc2c(c1S(=O)(=O)Nc1noc3cc(Cn4cccn4)c(Cl)c(OC)c13)OCCC2(C)C` [Compound 29, N-(6-((1H-Pyrazol-1-yl)methyl)-5-chloro-4-methoxybenzo[d]isoxazol-3-yl)-7-methoxy-4,4-dimethylchromane-8-sulfonamide], the IC50 was 10 to 50 nM.

On to `COc1ccc2c(c1S(=O)(=O)Nc1noc3cc(Cn4cccn4)cc(OC)c13)OC(C)(C)O2` [Compound 18, N-(6-((1H-Pyrazol-1-yl)methyl)-4-methoxybenzo[d]isoxazol-3-yl)-5-methoxy-2,2-dimethylbenzo[d][1,3]dioxole-4-sulfonamide], for which the IC50 was 2 to 10 nM.

`COc1ccc2c(c1S(=O)(=O)Nc1noc3cc(Cn4cccn4)cc(OC)c13)OCCC2O` (centres unmarked) [Compound 36, N-(6-((1H-Pyrazol-1-yl)methyl)-4-methoxybenzo[d]isoxazol-3-yl)-4-hydroxy-7-methoxychromane-8-sulfonamide]: the IC50 is less than 0.5 nM.

For `COc1cc(Cn2cccn2)cc2onc(NS(=O)(=O)c3cc(C(C)C)ccc3OCC(F)F)c12` [Compound 10, N-(6-((1H-Pyrazol-1-yl)methyl)-4-methoxybenzo[d]isoxazol-3-yl)-2-(2,2-difluoroethoxy)-5-isopropylbenzenesulfonamide], the 50% inhibitory concentration (IC50) is 2 to 10 nM.

As for `COc1ccc2c(c1S(=O)(=O)Nc1noc3cc(Cn4cccn4)c(F)c(OC)c13)OCCN2` [Compound 111, N-(6-((1H-Pyrazol-1-yl)methyl)-5-fluoro-4-methoxybenzo[d]isoxazol-3-yl)-7-methoxy-3,4-dihydro-2H-benzo[b][1,4]oxazine-8-sulfonamide], the IC50 was less than 0.5 nM.

For `COc1ccccc1S(=O)(=O)Nc1noc2cc(Cn3cccn3)cc(OC(F)F)c12` [Compound 11, N-(6-((1H-Pyrazol-1-yl)methyl)-4-(difluoromethoxy)benzo[d]isoxazol-3-yl)-2-methoxybenzenesulfonamide], the IC50 fell in the range of 2 to 10 nM.

On to `COc1ccc2c(c1S(=O)(=O)Nc1noc3cc(Cn4cccn4)cc(OC)c13)OCCO2` [Compound 14, N-(6-((1H-Pyrazol-1-yl)methyl)-4-methoxybenzo[d]isoxazol-3-yl)-6-methoxy-2,3-dihydrobenzo[b][1,4]dioxine-5-sulfonamide], for which the IC50 is 0.5 to 2 nM.

On to `COc1ccc2c(c1S(=O)(=O)Nc1noc3cc(Cn4cccn4)c(F)c(OC)c13)OCC=C2C` [Compound 106, N-(6-((1H-Pyrazol-1-yl)methyl)-5-fluoro-4-methoxybenzo[d]isoxazol-3-yl)-7-methoxy-4-methyl-2H-chromene-8-sulfonamide], for which the IC50 was less than 0.5 nM.

`COc1ccc2c(c1S(=O)(=O)Nc1noc3cc(Cn4cccn4)cc(OC)c13)OCCC21CCCC1` [Compound 26, N-(6-((1H-Pyrazol-1-yl)methyl)-4-methoxybenzo[d]isoxazol-3-yl)-7-methoxyspiro[chromane-4,1′-cyclopentane]-8-sulfonamide]: the IC50 is less than 0.5 nM.

As for `COc1ccc2c(c1S(=O)(=O)Nc1noc3cc(Cn4cccn4)c(F)c(OC)c13)OCCC21SCCS1` [Compound 44, N-(6-((1H-Pyrazol-1-yl)methyl)-5-fluoro-4-methoxybenzo[d]isoxazol-3-yl)-7-methoxyspiro[chromane-4,2′-[1,3]dithiolane]-8-sulfonamide], the IC50 was less than 0.5 nM.

On to `COc1ccc2c(c1S(=O)(=O)Nc1noc3cc(Cn4cccn4)c(F)c(OC)c13)OCCN2CC(F)(F)F` [Compound 120, N-(6-((1H-Pyrazol-1-yl)methyl)-5-fluoro-4-methoxybenzo[d]isoxazol-3-yl)-7-methoxy-4-(2,2,2-trifluoroethyl)-3,4-dihydro-2/-benzo[b][1,4]oxazine-8-sulfonamide], for which the IC50 lay in the range of 2 to 10 nM.

Take `COc1ccc2c(c1S(=O)(=O)Nc1noc3cc(Cn4cccn4)c(F)c(OC)c13)OCCC2O` (centres unmarked) [Compound 107, N-(6-((1H-Pyrazol-1-yl)methyl)-5-fluoro-4-methoxybenzo[d]isoxazol-3-yl)-4-hydroxy-7-methoxychromane-8-sulfonamide]: the IC50 is 0.5 to 2 nM.

Take `CC(C)Oc1cc(Cn2cccn2)cc2onc(NS(=O)(=O)c3cc(C(C)(C)C)ccc3OC3CCC3)c12` [Compound 6, N-(6-((1H-Pyrazol-1-yl)methyl)-4-isopropoxybenzo[d]isoxazol-3-yl)-5-(tert-butyl)-2-cyclobutoxybenzenesulfonamide]: the IC50 lay in the range of 2 to 10 nM.
